Results published in paper PMC2840623 (Biochemistry, 2010).

Assays:
[1] = target: epi-isozizaene synthase (EIZS) (Streptomyces coelicolor, UniProt Q9K499, F198A); experiment: X-ray crystal structure, […] Å; type: binding; details: complex with 3 Mg2+ and PPi; active site, alternative orientation
[2] = target: T1, epi-isozizaene synthase (EIZS) (Streptomyces coelicolor, UniProt Q9K499); experiment: X-ray crystal structure, […] Å; type: binding; details: complex with 3 Mg2+ and BTAC; active site
T1 sequence (Q9K499 1-361): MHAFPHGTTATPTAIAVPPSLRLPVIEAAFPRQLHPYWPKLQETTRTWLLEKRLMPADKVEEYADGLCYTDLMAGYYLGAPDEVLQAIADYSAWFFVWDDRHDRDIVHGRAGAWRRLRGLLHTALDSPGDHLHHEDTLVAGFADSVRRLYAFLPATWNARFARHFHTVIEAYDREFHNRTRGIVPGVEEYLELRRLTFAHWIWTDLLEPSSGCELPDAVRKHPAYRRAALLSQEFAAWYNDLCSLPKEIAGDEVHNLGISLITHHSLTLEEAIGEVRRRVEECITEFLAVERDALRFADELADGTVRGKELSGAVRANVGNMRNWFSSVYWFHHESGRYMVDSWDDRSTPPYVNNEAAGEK

Chain of epi-isozizaene synthase (EIZS) (Streptomyces coelicolor, UniProt Q9K499, F198A) (Q9K499 whole entry F198A): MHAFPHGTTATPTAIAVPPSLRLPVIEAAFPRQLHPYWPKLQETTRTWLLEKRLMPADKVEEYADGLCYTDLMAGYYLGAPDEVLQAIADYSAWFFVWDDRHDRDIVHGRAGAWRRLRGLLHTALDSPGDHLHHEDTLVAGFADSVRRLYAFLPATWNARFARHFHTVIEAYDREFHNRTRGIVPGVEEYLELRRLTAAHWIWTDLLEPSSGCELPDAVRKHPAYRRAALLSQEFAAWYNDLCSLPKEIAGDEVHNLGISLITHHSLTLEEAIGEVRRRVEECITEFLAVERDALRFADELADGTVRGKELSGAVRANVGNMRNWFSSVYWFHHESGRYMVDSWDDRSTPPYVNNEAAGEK

Structure (SMILES)	X-ray crystal structure, 1.64 Å [1]	X-ray crystal structure, 1.60 Å [2]
CC[N+](CC)(CC)Cc1ccccc1 [BTAC, benzyltriethylammonium cation]	the BTAC molecule occupies an alternative position	–
O=P(O)(O)OP(=O)(O)O [PPi, inorganic pyrophosphate]	–	The PPi anion also accepts hydrogen bonds from the side chains of R194, K247
